# Results: article PMC5218480 (PLoS ONE, 2017)
# Test system: MV-4-11 cells
# Assay: Gene expression microarray analysis (Affymetrix PrimeView) and GSEA
# Format: cell-based, human
# Set-up: RFU PODN (11730768_x_at) / Fold change /veh PODN (11730768_x_at) / RFU LINC00158 (11744669_a_at) / Fold change /veh LINC00158 (11744669_a_at) / RFU DUSP10 (11751237_a_at) / Fold change /veh DUSP10 (11751237_a_at) / RFU ID3 (11757404_x_at) / Fold change /veh ID3 (11757404_x_at) / RFU PLEKHG5 (11737974_s_at) / Fold change /veh PLEKHG5 (11737974_s_at) / RFU LRRC4B (11730491_at) / Fold change /veh LRRC4B (11730491_at) / RFU GIMAP4 (11747438_a_at) / Fold change /veh GIMAP4 (11747438_a_at) / RFU KRT8 (11758183_x_at) / Fold change /veh KRT8 (11758183_x_at) / RFU CNN1 (11734310_a_at) / Fold change /veh CNN1 (11734310_a_at) / RFU VPS37D (11726825_at) / Fold change /veh VPS37D (11726825_at) / RFU C10orf10 (11716522_x_at) / Fold change /veh C10orf10 (11716522_x_at) / RFU KIR2DL2 /// KIR2DL4 /// KIR2DL5A /// KIR2DL5B /// KIR2DS1 /// KIR2DS2 /// KIR2DS3 /// KIR2DS4 /// KIR3DL3 /// KIR3DL3 /// KIR3DS1 (11738374_at) / Fold change /veh KIR2DL2 /// KIR2DL4 /// KIR2DL5A /// KIR2DL5B /// KIR2DS1 /// KIR2DS2 /// KIR2DS3 /// KIR2DS4 /// KIR3DL3 /// KIR3DL3 /// KIR3DS1 (11738374_at) / RFU C1QL1 (11718748_at) / Fold change /veh C1QL1 (11718748_at) / RFU TMPRSS4 (11747572_a_at) / Fold change /veh TMPRSS4 (11747572_a_at) / RFU HAMP (11756126_x_at) / Fold change /veh HAMP (11756126_x_at) / RFU RNFT2 (11725882_a_at) / Fold change /veh RNFT2 (11725882_a_at) / RFU NR4A2 (11747474_a_at) / Fold change /veh NR4A2 (11747474_a_at) / RFU ABCC12 (11746883_a_at) / Fold change /veh ABCC12 (11746883_a_at) / RFU TMEM136 (11760407_x_at) / Fold change /veh TMEM136 (11760407_x_at) / RFU CLDN22 /// WWC2 (11732394_at) / Fold change /veh CLDN22 /// WWC2 (11732394_at) / RFU HLA-DPB1 (11760878_x_at) / Fold change /veh HLA-DPB1 (11760878_x_at) / RFU SPINT1 (11716480_a_at) / Fold change /veh SPINT1 (11716480_a_at) / RFU GAP43 (11754022_s_at) / Fold change /veh GAP43 (11754022_s_at) / RFU A4GNT (11735810_at) / Fold change /veh A4GNT (11735810_at) / RFU PRB3 (11715151_x_at) / Fold change /veh PRB3 (11715151_x_at) / RFU TUBB4B (11761932_at) / Fold change /veh TUBB4B (11761932_at) / RFU CAPN14 (11732068_a_at) / Fold change /veh CAPN14 (11732068_a_at) / RFU TMCC2 (11721928_a_at) / Fold change /veh TMCC2 (11721928_a_at) / RFU IRGQ (11745062_a_at) / Fold change /veh IRGQ (11745062_a_at) / RFU FAM174B (11720279_a_at) / Fold change /veh FAM174B (11720279_a_at) / RFU TMPRSS4 (11748680_a_at) / Fold change /veh TMPRSS4 (11748680_a_at) / RFU FAM212B (11763350_a_at) / Fold change /veh FAM212B (11763350_a_at) / RFU PLEKHG5 (11743358_a_at) / Fold change /veh PLEKHG5 (11743358_a_at) / RFU ZSCAN30 (11745921_a_at) / Fold change /veh ZSCAN30 (11745921_a_at) / RFU CMKLR1 (11741424_a_at) / Fold change /veh CMKLR1 (11741424_a_at) / RFU LOC101060620 /// MAPK8IP1 (11723275_at) / Fold change /veh LOC101060620 /// MAPK8IP1 (11723275_at) / RFU SPTSSB (11747773_x_at) / Fold change /veh SPTSSB (11747773_x_at) / RFU PRSS12 (11739890_at) / Fold change /veh PRSS12 (11739890_at) / RFU BIN1 (11741810_x_at) / Fold change /veh BIN1 (11741810_x_at) / RFU WNT11 (11732464_a_at) / Fold change /veh WNT11 (11732464_a_at) / RFU C10orf10 (11716521_a_at) / Fold change /veh C10orf10 (11716521_a_at) / RFU C5orf56 (11738089_at) / Fold change /veh C5orf56 (11738089_at) / RFU CYB561 (11721691_x_at) / Fold change /veh CYB561 (11721691_x_at) / RFU ANKRD19P (11752326_a_at) / Fold change /veh ANKRD19P (11752326_a_at) / RFU OR2T12 /// OR2T33 /// OR2T8 (11738714_s_at) / Fold change /veh OR2T12 /// OR2T33 /// OR2T8 (11738714_s_at) / RFU VCAN (11748164_a_at) / Fold change /veh VCAN (11748164_a_at) / RFU JSRP1 (11732532_at) / Fold change /veh JSRP1 (11732532_at) / RFU KRTAP10-11 (11738290_x_at) / Fold change /veh KRTAP10-11 (11738290_x_at) / RFU MYO3A (11730013_a_at) / Fold change /veh MYO3A (11730013_a_at) / RFU EBF3 (11725865_a_at) / Fold change /veh EBF3 (11725865_a_at) / RFU CAMK2N1 (11719241_x_at) / Fold change /veh CAMK2N1 (11719241_x_at) / RFU C5orf56 (11738088_a_at) / Fold change /veh C5orf56 (11738088_a_at) / RFU OLFML3 (11715873_a_at) / Fold change /veh OLFML3 (11715873_a_at) / RFU LOC100653217 /// NTM (11731650_a_at) / Fold change /veh LOC100653217 /// NTM (11731650_a_at) / RFU MAPK11 (11762145_a_at) / Fold change /veh MAPK11 (11762145_a_at) / RFU FIZ1 (11724087_x_at) / Fold change /veh FIZ1 (11724087_x_at) / RFU OASL (11726364_x_at) / Fold change /veh OASL (11726364_x_at) / RFU SOX15 (11748057_x_at) / Fold change /veh SOX15 (11748057_x_at) / RFU CD79A (11719716_a_at) / Fold change /veh CD79A (11719716_a_at) / RFU HIST1H1D (11736915_at) / Fold change /veh HIST1H1D (11736915_at) / RFU CASKIN2 (11723855_a_at) / Fold change /veh CASKIN2 (11723855_a_at) / RFU LOC730098 (11760151_x_at) / Fold change /veh LOC730098 (11760151_x_at) / RFU OR4N2 (11742367_at) / Fold change /veh OR4N2 (11742367_at) / RFU PRRT2 (11749266_a_at) / Fold change /veh PRRT2 (11749266_a_at) / RFU SNX32 (11753110_a_at) / Fold change /veh SNX32 (11753110_a_at) / RFU CDHR5 (11726645_a_at) / Fold change /veh CDHR5 (11726645_a_at) / RFU RCAN1 (11760418_a_at) / Fold change /veh RCAN1 (11760418_a_at) / RFU FAM167A (11723789_a_at) / Fold change /veh FAM167A (11723789_a_at) / RFU FAM26E (11764081_at) / Fold change /veh FAM26E (11764081_at) / RFU ISYNA1 (11749810_s_at) / Fold change /veh ISYNA1 (11749810_s_at) / RFU ACY1 (11761880_at) / Fold change /veh ACY1 (11761880_at) / RFU 11764098_at / Fold change /veh 11764098_at / RFU SAMD14 (11745864_x_at) / Fold change /veh SAMD14 (11745864_x_at) / RFU NPB (11741838_a_at) / Fold change /veh NPB (11741838_a_at) / RFU TMPRSS6 (11731388_a_at) / Fold change /veh TMPRSS6 (11731388_a_at) / RFU KRTAP10-2 (11738614_at) / Fold change /veh KRTAP10-2 (11738614_at) / RFU ARHGAP8 /// PRR5-ARHGAP8 (11727945_x_at) / Fold change /veh ARHGAP8 /// PRR5-ARHGAP8 (11727945_x_at) / RFU KRTAP5-7 /// NADSYN1 (11734609_at) / Fold change /veh KRTAP5-7 /// NADSYN1 (11734609_at) / RFU RASL12 (11751679_a_at) / Fold change /veh RASL12 (11751679_a_at) / RFU CDKN2B (11736163_a_at) / Fold change /veh CDKN2B (11736163_a_at) / RFU PRF1 (11729649_at) / Fold change /veh PRF1 (11729649_at) / RFU, ZNF638 /// ZNF638-IT1 / Fold change vs veh, ZNF638 /// ZNF638-IT1 / RFU, PANK3 / Fold change vs veh, PANK3 / RFU, SH3YL1 / Fold change vs veh, SH3YL1 / RFU, ZEB2 / Fold change vs veh, ZEB2 / RFU, NRIP1 / Fold change vs veh, NRIP1 / RFU, PTTG1IP / Fold change vs veh, PTTG1IP / RFU, CAPN2 / Fold change vs veh, CAPN2 / RFU, MED14 / Fold change vs veh, MED14 / RFU, SNORA58 / Fold change vs veh, SNORA58 / RFU, C1orf63 / Fold change vs veh, C1orf63 / RFU, LRRFIP1 / Fold change vs veh, LRRFIP1 / RFU, NDUFAF7 / Fold change vs veh, NDUFAF7 / RFU, SLC12A2 / Fold change vs veh, SLC12A2 / RFU, IBTK / Fold change vs veh, IBTK / RFU, ESF1 / Fold change vs veh, ESF1 / Fold change vs veh, TMEM50B / RFU, TAOK1 / Fold change vs veh, TAOK1 / RFU, ACBD3 / Fold change vs veh, ACBD3 / RFU, TMA16 / Fold change vs veh, TMA16 / RFU, RWDD3 / Fold change vs veh, RWDD3 / RFU, BCAT1 / Fold change vs veh, BCAT1 / RFU, EDEM3 / Fold change vs veh, EDEM3 / RFU, TMEM33 / Fold change vs veh, TMEM33 / RFU, WDR75 / Fold change vs veh, WDR75 / RFU, AHCTF1 / Fold change vs veh, AHCTF1 / RFU, TFRC / Fold change vs veh, TFRC / RFU, ZDHHC17 / Fold change vs veh, ZDHHC17 / RFU, NOM1 / Fold change vs veh, NOM1 / RFU, ARL8B / Fold change vs veh, ARL8B / RFU, ZBTB11 / Fold change vs veh, ZBTB11 / RFU, TAMM41 / Fold change vs veh, TAMM41 / RFU, KIAA1704 /// LOC100996395 / Fold change vs veh, KIAA1704 /// LOC100996395 / RFU, ING1 / Fold change vs veh, ING1 / RFU, TRMT61B / Fold change vs veh, TRMT61B / RFU, FUBP3 / Fold change vs veh, FUBP3 / RFU, TP53 / Fold change vs veh, TP53 / RFU, TNKS2 / Fold change vs veh, TNKS2 / RFU, ZFP14 / Fold change vs veh, ZFP14 / RFU, ACTR2 / Fold change vs veh, ACTR2 / RFU, PPP3R1 / Fold change vs veh, PPP3R1 / RFU, PIK3R1 / Fold change vs veh, PIK3R1 / RFU, HNRNPA1 / Fold change vs veh, HNRNPA1 / RFU, RNF170 / Fold change vs veh, RNF170 / RFU, ZNF28 / Fold change vs veh, ZNF28 / RFU, RNGTT / Fold change vs veh, RNGTT / RFU, OGT / Fold change vs veh, OGT / RFU, BRD1 / Fold change vs veh, BRD1 / RFU, MARS / Fold change vs veh, MARS / RFU, ZNF655 / Fold change vs veh, ZNF655 / RFU, FAHD1 / Fold change vs veh, FAHD1 / RFU, BDP1 / Fold change vs veh, BDP1 / RFU, LRRCC1 / Fold change vs veh, LRRCC1 / RFU, ARID1A / Fold change vs veh, ARID1A / RFU, ZNF146 / Fold change vs veh, ZNF146 / RFU, ZNF330 / Fold change vs veh, ZNF330 / RFU, GPN3 / Fold change vs veh, GPN3 / RFU, C9orf123 / Fold change vs veh, C9orf123 / RFU, N4BP2L2 / Fold change vs veh, N4BP2L2 / RFU, ARFIP1 / Fold change vs veh, ARFIP1 / RFU, FAM179B / Fold change vs veh, FAM179B / RFU, BCL10 / Fold change vs veh, BCL10 / RFU, UHRF1BP1L / Fold change vs veh, UHRF1BP1L / RFU, BET1 / Fold change vs veh, BET1 / RFU, CNOT2 / Fold change vs veh, CNOT2 / RFU, ZNF268 / Fold change vs veh, ZNF268 / Fold change vs veh, ZNF507 / RFU, DGCR2 / Fold change vs veh, DGCR2 / RFU, WDSUB1 / Fold change vs veh, WDSUB1 / Fold change vs veh, HSP90B1 /// MIR3652 / RFU, ADSS / Fold change vs veh, ADSS / RFU, GK / Fold change vs veh, GK / RFU, ZNF148 / Fold change vs veh, ZNF148 / RFU, TAF9 / Fold change vs veh, TAF9 / RFU, SLC1A5 / Fold change vs veh, SLC1A5 / RFU, SLMO2 / Fold change vs veh, SLMO2 / RFU, ABCC4 / Fold change vs veh, ABCC4 / RFU, LOC101060439 /// RAP1B / Fold change vs veh, LOC101060439 /// RAP1B / RFU, RFX7 / Fold change vs veh, RFX7 / RFU, GTPBP10 / Fold change vs veh, GTPBP10 / RFU, CNEP1R1 / Fold change vs veh, CNEP1R1 / RFU, BIVM-ERCC5 /// ERCC5 / Fold change vs veh, BIVM-ERCC5 /// ERCC5 / RFU, ILF3 / Fold change vs veh, ILF3 / RFU 11762660_at / Fold change /veh 11762660_at / RFU VCAN (11757783_s_at) / Fold change /veh VCAN (11757783_s_at) / RFU DDX43 (11728927_at) / Fold change /veh DDX43 (11728927_at) / RFU KRT8 (11758188_x_at) / Fold change /veh KRT8 (11758188_x_at) / RFU NKD1 (11759106_at) / Fold change /veh NKD1 (11759106_at) / RFU SRD5A1 (11742802_a_at) / Fold change /veh SRD5A1 (11742802_a_at) / RFU TPSAB1 /// TPSB2 (11721975_s_at) / Fold change /veh TPSAB1 /// TPSB2 (11721975_s_at) / RFU GSTM3 (11746129_a_at) / Fold change /veh GSTM3 (11746129_a_at) / RFU IL23R (11737362_x_at) / Fold change /veh IL23R (11737362_x_at) / RFU TMEM51 (11727254_a_at) / Fold change /veh TMEM51 (11727254_a_at) / RFU PIWIL2 (11732686_x_at) / Fold change /veh PIWIL2 (11732686_x_at) / RFU ORM1 (11744905_x_at) / Fold change /veh ORM1 (11744905_x_at) / RFU CCDC152 (11743942_at) / Fold change /veh CCDC152 (11743942_at) / RFU ECM1 (11717891_a_at) / Fold change /veh ECM1 (11717891_a_at) / RFU IL23R (11748794_a_at) / Fold change /veh IL23R (11748794_a_at) / RFU TNFAIP8L3 (11732012_x_at) / Fold change /veh TNFAIP8L3 (11732012_x_at) / RFU MBOAT4 (11741988_at) / Fold change /veh MBOAT4 (11741988_at) / RFU 11764193_at / Fold change /veh 11764193_at / RFU TMEM53 (11763286_at) / Fold change /veh TMEM53 (11763286_at) / RFU MAGEB2 (11727129_at) / Fold change /veh MAGEB2 (11727129_at) / RFU TMEM200A (11744735_a_at) / Fold change /veh TMEM200A (11744735_a_at) / RFU CCDC152 (11751479_a_at) / Fold change /veh CCDC152 (11751479_a_at) / RFU FAM211A (11726209_a_at) / Fold change /veh FAM211A (11726209_a_at) / RFU RGS16 (11746705_a_at) / Fold change /veh RGS16 (11746705_a_at) / RFU VCAN (11755009_s_at) / Fold change /veh VCAN (11755009_s_at) / RFU RHOB (11743442_s_at) / Fold change /veh RHOB (11743442_s_at) / RFU RGS16 (11720943_a_at) / Fold change /veh RGS16 (11720943_a_at) / RFU RGS16 (11720944_at) / Fold change /veh RGS16 (11720944_at) / RFU, VPS4B / Fold change vs veh, VPS4B / RFU, CREB1 / Fold change vs veh, CREB1 / RFU, DNAJC13 / Fold change vs veh, DNAJC13 / RFU, GNAQ / Fold change vs veh, GNAQ / RFU, CDK5R1 / Fold change vs veh, CDK5R1 / RFU, ZRANB3 / Fold change vs veh, ZRANB3 / RFU, CUL4A / Fold change vs veh, CUL4A / RFU, CCNY / Fold change vs veh, CCNY / RFU, UFL1 / Fold change vs veh, UFL1 / RFU, COG3 / Fold change vs veh, COG3 / RFU, DIAPH2 / Fold change vs veh, DIAPH2 / RFU, SKA2 / Fold change vs veh, SKA2 / RFU, AFF3 / Fold change vs veh, AFF3 / RFU, LMF1 / Fold change vs veh, LMF1 / RFU, IPO11 / Fold change vs veh, IPO11 / RFU, DFFB / Fold change vs veh, DFFB / RFU, FOXP1 / Fold change vs veh, FOXP1 / RFU, CARD8 / Fold change vs veh, CARD8 / RFU, STRN3 / Fold change vs veh, STRN3 / RFU, ADK / Fold change vs veh, ADK / RFU, RASSF2 / Fold change vs veh, RASSF2 / RFU, WIPF1 / Fold change vs veh, WIPF1 / RFU, LARP1B / Fold change vs veh, LARP1B / RFU, RASA1 / Fold change vs veh, RASA1 / RFU, RB1 / Fold change vs veh, RB1 / RFU, PPFIA1 / Fold change vs veh, PPFIA1 / RFU, MAT2A / Fold change vs veh, MAT2A / RFU, CCT5 / Fold change vs veh, CCT5 / RFU, WDR92 / Fold change vs veh, WDR92 / RFU, CUX1 / Fold change vs veh, CUX1 / RFU, TTC7A / Fold change vs veh, TTC7A / RFU, TMEM135 / Fold change vs veh, TMEM135 / RFU, DEPTOR / Fold change vs veh, DEPTOR / RFU, CPM / Fold change vs veh, CPM / RFU, DNAJB6 / Fold change vs veh, DNAJB6 / RFU, CACNA2D3 / Fold change vs veh, CACNA2D3 / RFU, DTX4 / Fold change vs veh, DTX4 / RFU, TFCP2 / Fold change vs veh, TFCP2 / RFU, GMCL1 /// GMCL1P1 / Fold change vs veh, GMCL1 /// GMCL1P1 / RFU, AEBP2 / Fold change vs veh, AEBP2 / RFU, SNHG1 /// SNORD22 /// SNORD25 /// SNORD26 /// SNORD27 /// SNORD28 /// SNORD29 /// SNORD31 / Fold change vs veh, SNHG1 /// SNORD22 /// SNORD25 /// SNORD26 /// SNORD27 /// SNORD28 /// SNORD29 /// SNORD31 / Fold change (Aza/veh), C12orf56 (ProbeSet 11735607_a_at) / Fold change (ACY-1035/veh), C12orf56 (ProbeSet 11735607_a_at) / Fold change (Aza/veh), FGFR1OP (ProbeSet 11751329_s_at) / Fold change (ACY-1035/veh), FGFR1OP (ProbeSet 11751329_s_at) / Fold change (Aza/veh), VPS36 (ProbeSet 11739960_a_at) / Fold change (ACY-1035/veh), VPS36 (ProbeSet 11739960_a_at) / RFU SYPL1 (11715823_x_at) / Fold change /veh SYPL1 (11715823_x_at) / RFU IGFBP7 (11715501_s_at) / Fold change /veh IGFBP7 (11715501_s_at) / RFU REEP3 (11722064_at) / Fold change /veh REEP3 (11722064_at) / RFU IGLL1 (11728026_x_at) / Fold change /veh IGLL1 (11728026_x_at): dose or concentration left out as unconfirmed
# Details: MV-4-11 cells, 48 hours
smiles,measurement,value
Nc1ccc(-c2cccs2)cc1NC(=O)c1ccc2c(c1)cc(C1CC1)n2CCN1CCOCC1 [ACY-1035],Fold change /veh TMEM136 (11760407_x_at),1.12
